What all share (assay): Radiometric protein kinase assay (33PanQinase), Assay Condition A (thiol containing)
Holding throughout (format): biochemical

One assay has as its target CDK7/CycH/MAT1 (Homo sapiens (Human), UniProt P50613). Conditions: thiol containing (1.2 mM DTT), ATP 3.0 μM. How it is done: (§1) The IC50 profile of test compounds was determined using three protein kinases.
(§2) The compounds were provided as pre-weighed powders in vials. The compounds were dissolved to 1×10^−02M by adding DMSO. 100 μl of each of the resulting stock solutions were transferred into column 2 of four 96 well “master plates”.
(§3) Prior to testing, the 1×10^−02M stock solutions in column 2 of the master plates were subjected to a serial, semi-logarithmic dilution using 100% DMSO as a solvent. […] Column 1 and 7 were filled with 100% DMSO as controls. Subsequently, 2×10 μl from each well of the serial diluted copy plates were aliquoted with a 96 channel pipettor into two identical sets of “compound dilution plates”.
(§4) In the process, 90 μl H2O were added to each well of a set of compound dilution plates. To minimize potential precipitation, the H2O was added to each plate only a few minutes before the transfer of the compound solutions into the assay plates. Each plate was shaken thoroughly, resulting in a “compound dilution plate/10% DMSO”.
(§5) For the assays, 5 μl solution from each well of the compound dilution plates/10% DMSO were transferred into the assay plates. The final volume of the assay was 50 μl. All compounds were tested at 10 final assay concentrations in the range from 1×10^−04M to 3×10^−09M, in singlicate. The final DMSO concentration in the reaction cocktails was 1% in all cases.
(§6) All protein kinases were expressed in Sf9 insect cells or in E. coli as recombinant GST-fusion proteins or His-tagged proteins, either as full-length or enzymatically active fragments. All kinases were produced from human cDNAs and purified by either GSH-affinity chromatography or immobilized metal. Affinity tags were removed from a number of kinases during purification. The purity of the protein kinases was examined by SDS-PAGE/Coomassie staining, the identity was checked by mass spectroscopy.
(§7) A radiometric protein kinase assay (^33PanQinase® Activity Assay) was used for measuring the kinase activity of the three protein kinases. All kinase assays were performed in 96-well FlashPlates™ from PerkinElmer (Boston, Mass., USA) in a 50 μl reaction volume. The reaction cocktail was pipetted in four steps in the following order: • 20 μl of assay buffer (standard buffer) • 5 μl of ATP solution (in H2O) • 5 μl of test compound (in 10% DMSO) • 20 μl enzyme/substrate mix
(§8) The reaction cocktails were incubated at 30° C. for 60 minutes. The reaction was stopped with 50 μl of 2% (v/v) H3PO4, plates were aspirated and washed two times with 200 μl 0.9% (w/v) NaCl. Incorporation of ^33Pi was determined with a microplate scintillation counter (Microbeta, Wallac). All assays were performed with a BeckmanCoulter/SAGIAN™ Core System.
(§9) The median value of the counts in column 1 (n=8) of each assay plate was defined as “low control”. This value reflects unspecific binding of radioactivity to the plate in the absence of a protein kinase but in the presence of the substrate. The median value of the counts in column 7 of each assay plate (n=8) was taken as the “high control”, i.e. full activity in the absence of any inhibitor. The difference between high and low control was taken as 100% activity.
(§10) As part of the data evaluation the low control value from a particular plate was subtracted from the high control value as well as from all 80 “compound values” of the corresponding plate. The residual activity (in %) for each well of a particular plate was calculated by using the following formula: Res. Activity (%)=100×[(cpm of compound−low control)/(high control−low control)]
(§11) The residual activities for each concentration and the compound IC50 values were calculated using Quattro Workflow V3.1.1 (Quattro Research GmbH, Munich, Germany). […] The fitting method used was a least-squares fit.

The target in another assay is CDK2/CycA2 (Homo sapiens (Human), UniProt P24941). Conditions: thiol containing (1.2 mM DTT), ATP 0.3 μM. How it is done:
as §1, §2, §3, §4, §5, §6, §7, §8, §9, §10, §11

The next assay addresses CDK12 wt/CycK (Homo sapiens (Human), UniProt Q9NYV4). As to conditions: thiol containing (1.2 mM DTT), ATP 0.3 μM. How it is done: as §1, §2, §3, §4, §5, §6, §7, §8, §9, §10, §11

The structures appear in SMILES notation. Where only a bound is given, the exact number is not on record here.

CDK12 wt/CycK, sequence (Q9NYV4 whole entry): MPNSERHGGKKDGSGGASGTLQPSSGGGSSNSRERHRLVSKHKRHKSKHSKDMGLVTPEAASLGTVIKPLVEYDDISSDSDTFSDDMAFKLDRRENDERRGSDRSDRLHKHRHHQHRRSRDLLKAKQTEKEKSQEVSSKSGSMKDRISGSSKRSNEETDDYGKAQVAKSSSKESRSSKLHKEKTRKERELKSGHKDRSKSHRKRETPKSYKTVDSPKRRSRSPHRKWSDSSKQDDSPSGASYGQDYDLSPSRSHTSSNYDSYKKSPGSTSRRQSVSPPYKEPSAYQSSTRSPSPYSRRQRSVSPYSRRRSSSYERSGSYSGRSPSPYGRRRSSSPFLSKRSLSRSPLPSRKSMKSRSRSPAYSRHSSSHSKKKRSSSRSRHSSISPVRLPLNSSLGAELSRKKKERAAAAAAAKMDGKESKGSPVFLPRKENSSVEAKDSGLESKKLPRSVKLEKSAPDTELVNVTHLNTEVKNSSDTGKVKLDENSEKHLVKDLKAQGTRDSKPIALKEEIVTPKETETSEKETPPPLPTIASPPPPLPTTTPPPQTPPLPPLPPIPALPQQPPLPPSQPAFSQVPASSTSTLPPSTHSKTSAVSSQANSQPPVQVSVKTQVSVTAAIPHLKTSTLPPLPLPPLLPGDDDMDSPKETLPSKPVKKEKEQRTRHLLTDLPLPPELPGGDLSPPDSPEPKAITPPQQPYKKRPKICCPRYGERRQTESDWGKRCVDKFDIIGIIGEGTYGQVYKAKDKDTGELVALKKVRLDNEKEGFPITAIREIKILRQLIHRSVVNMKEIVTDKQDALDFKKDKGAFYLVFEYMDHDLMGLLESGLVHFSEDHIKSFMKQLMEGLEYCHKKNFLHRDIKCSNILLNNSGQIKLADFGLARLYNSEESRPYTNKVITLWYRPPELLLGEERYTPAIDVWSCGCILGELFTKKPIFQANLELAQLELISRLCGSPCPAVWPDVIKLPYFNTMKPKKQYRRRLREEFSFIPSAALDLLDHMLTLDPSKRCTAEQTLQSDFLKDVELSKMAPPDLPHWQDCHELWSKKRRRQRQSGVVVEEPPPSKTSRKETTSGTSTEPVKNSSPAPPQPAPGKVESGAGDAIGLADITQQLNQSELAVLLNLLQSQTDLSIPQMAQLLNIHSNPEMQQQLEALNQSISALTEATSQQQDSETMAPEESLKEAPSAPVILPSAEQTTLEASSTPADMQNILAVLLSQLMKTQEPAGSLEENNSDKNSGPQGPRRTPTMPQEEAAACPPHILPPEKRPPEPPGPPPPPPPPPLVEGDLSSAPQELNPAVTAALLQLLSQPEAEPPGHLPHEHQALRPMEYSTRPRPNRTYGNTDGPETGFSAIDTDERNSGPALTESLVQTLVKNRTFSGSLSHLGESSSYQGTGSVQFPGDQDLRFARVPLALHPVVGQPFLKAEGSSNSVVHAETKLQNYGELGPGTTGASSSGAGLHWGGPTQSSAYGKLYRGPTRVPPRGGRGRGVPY
CDK12 wt/CycK, sequence (O75909 whole entry partner): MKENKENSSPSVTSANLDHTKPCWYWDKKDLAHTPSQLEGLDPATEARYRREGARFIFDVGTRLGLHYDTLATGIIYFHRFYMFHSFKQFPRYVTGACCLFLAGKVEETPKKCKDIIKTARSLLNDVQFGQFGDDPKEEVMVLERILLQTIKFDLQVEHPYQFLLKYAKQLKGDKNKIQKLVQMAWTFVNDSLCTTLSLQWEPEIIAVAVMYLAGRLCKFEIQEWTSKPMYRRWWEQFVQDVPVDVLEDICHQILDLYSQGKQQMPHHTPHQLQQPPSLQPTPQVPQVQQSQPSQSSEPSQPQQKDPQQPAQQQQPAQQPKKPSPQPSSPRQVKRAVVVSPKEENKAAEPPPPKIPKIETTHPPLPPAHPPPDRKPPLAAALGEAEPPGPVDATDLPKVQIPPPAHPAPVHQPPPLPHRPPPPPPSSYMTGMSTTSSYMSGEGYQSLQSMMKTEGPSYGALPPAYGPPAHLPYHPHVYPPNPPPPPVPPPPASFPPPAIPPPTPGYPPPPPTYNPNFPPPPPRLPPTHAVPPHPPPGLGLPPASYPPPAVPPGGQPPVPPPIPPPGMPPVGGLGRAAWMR
CDK7/CycH/MAT1, sequence (P50613 whole entry): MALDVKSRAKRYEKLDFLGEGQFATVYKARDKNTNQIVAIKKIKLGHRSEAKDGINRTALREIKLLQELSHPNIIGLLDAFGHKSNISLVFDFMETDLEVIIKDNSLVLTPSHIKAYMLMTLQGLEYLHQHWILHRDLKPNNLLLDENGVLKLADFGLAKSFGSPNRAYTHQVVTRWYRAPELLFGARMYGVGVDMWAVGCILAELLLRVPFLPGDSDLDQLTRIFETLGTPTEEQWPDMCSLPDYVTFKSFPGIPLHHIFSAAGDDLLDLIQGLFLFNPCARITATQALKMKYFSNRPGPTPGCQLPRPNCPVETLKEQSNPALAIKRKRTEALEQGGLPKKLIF
CDK7/CycH/MAT1, sequence (P51946 whole entry partner): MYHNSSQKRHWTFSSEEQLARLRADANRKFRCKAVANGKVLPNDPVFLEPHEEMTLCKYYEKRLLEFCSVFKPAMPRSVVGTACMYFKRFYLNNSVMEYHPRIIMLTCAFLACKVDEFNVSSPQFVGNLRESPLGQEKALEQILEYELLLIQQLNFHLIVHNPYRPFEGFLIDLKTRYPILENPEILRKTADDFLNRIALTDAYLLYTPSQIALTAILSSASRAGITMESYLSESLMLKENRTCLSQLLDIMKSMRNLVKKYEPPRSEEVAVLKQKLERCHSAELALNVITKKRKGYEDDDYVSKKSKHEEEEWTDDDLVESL
CDK7/CycH/MAT1, sequence (P51948 whole entry partner): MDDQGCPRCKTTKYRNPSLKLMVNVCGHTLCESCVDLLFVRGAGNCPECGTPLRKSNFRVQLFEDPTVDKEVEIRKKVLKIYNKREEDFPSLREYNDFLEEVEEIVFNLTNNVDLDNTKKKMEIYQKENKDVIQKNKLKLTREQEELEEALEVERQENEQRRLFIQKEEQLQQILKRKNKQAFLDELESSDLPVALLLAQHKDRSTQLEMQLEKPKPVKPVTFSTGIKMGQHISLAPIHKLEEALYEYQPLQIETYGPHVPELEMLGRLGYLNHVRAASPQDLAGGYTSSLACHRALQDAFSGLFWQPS

What is called IC50 is the concentration at which inhibition is half-maximal. With `CCC(=O)Nc1ccc(C(=O)N2CCC[C@@H](Nc3cc4ccccc4cn3)C2)cc1` [Example 18, (R)-N-(4-(3-(isoquinolin-3-ylamino)piperidine-1-carbonyl)phenyl)propionamide], the IC50 is 30 to 100 µM against CDK7/CycH/MAT1, 30 to 100 µM against CDK2/CycA2 and 10 to 30 µM against CDK12 wt/CycK.

For `CCC(=O)Nc1ccc(C(=O)N2CCC[C@@H](Nc3ncc4cc(Cl)ccc4n3)C2)cc1` [Example 19, (R)-N-(4-(3-((6-chloroquinazolin-2-yl)amino)piperidine-1-carbonyl)phenyl)propionamide], the IC50 at CDK7/CycH/MAT1, against CDK2/CycA2 and on CDK12 wt/CycK was 30 to 100 µM throughout.

For the compound `CCC(=O)Nc1ccc(C(=O)N2CCC[C@@H](Nc3ncc4ccc(OC)cc4n3)C2)cc1` [Example 20, (R)-N-(4-(3-((7-methoxyquinazolin-2-yl)amino)piperidine-1-carbonyl)phenyl)propionamide], the IC50 against CDK7/CycH/MAT1, against CDK2/CycA2 and at CDK12 wt/CycK was 30 to 100 µM in each case.

As for `CCC(=O)Nc1ccc(C(=O)N2CCC[C@@H](Nc3ncc4ccc(S(C)(=O)=O)cc4n3)C2)cc1` [Example 21, (R)-N-(4-(3-((7-(methylsulfonyl)quinazolin-2-yl)amino)piperidine-1-carbonyl)phenyl)propionamide], the IC50 on CDK7/CycH/MAT1 lay within 30 to 100 µM; against CDK2/CycA2 it was 10 to 30 µM; at CDK12 wt/CycK it was 10 to 30 µM.

In the case of `CCC(=O)Nc1ccc(C(=O)N2CCC[C@@H](Nc3ncc4ccc(Cl)cc4n3)C2)cc1` [Example 22, (R)-N-(4-(3-((7-chloroquinazolin-2-yl)amino)piperidine-1-carbonyl)phenyl)propionamide], the IC50 on CDK7/CycH/MAT1, against CDK2/CycA2 and on CDK12 wt/CycK was 30 to 100 µM each time.

With `CCC(=O)Nc1ccc(C(=O)N2CCC[C@@H](Nc3ncc4ccc(F)cc4n3)C2)cc1` [Example 23, (R)-N-(4-(3-((7-fluoroquinazolin-2-yl)amino)piperidine-1-carbonyl)phenyl)propionamide], the IC50 against CDK7/CycH/MAT1, against CDK2/CycA2 and on CDK12 wt/CycK was 30 to 100 µM throughout.

On to `CCC(=O)Nc1ccc(C(=O)N2CCC[C@@H](Nc3ncc4ccc(=O)n(C(C)C)c4n3)C2)cc1` [Example 24, (R)-N-(4-(3-((8-isopropyl-7-oxo-7,8-dihydropyrido[2,3-d]pyrimidin-2-yl)amino)piperidine-1-carbonyl)phenyl)propionamide], for which the IC50 on CDK7/CycH/MAT1 lay in the range of 30 to 100 µM; against CDK2/CycA2, 10 to 30 µM; against CDK12 wt/CycK, 10 to 30 µM.

For `C=CC(=O)Nc1ccc(C(=O)N2CC[C@@H](Nc3ncc4cc(Cl)ccc4n3)C2)cc1` [Example 25, (R)-N-(4-(3-((6-chloroquinazolin-2-yl)amino)pyrrolidine-1-carbonyl)phenyl)acrylamide], the IC50 is 1 to 10 µM on CDK7/CycH/MAT1, 0.1 to 1 µM on CDK2/CycA2 and no more than 0.1 µM on CDK12 wt/CycK.

As for `C=CC(=O)Nc1ccc(C(=O)N2CC[C@@H](Nc3ncc4cc(OC)ccc4n3)C2)cc1` [Example 29, (R)-N-(4-(3-((6-methoxyquinazolin-2-yl)amino)pyrrolidine-1-carbonyl)phenyl)acrylamide], the IC50 against CDK7/CycH/MAT1 fell in the range of 30 to 100 µM; at CDK2/CycA2, 10 to 30 µM; at CDK12 wt/CycK it was 0.1 to 1 µM.

Consider `C=CC(=O)Nc1ccc(C(=O)N2CC[C@@H](Nc3ncc4cc(C)ccc4n3)C2)cc1` [Example 30, (R)-N-(4-(3-((6-methylquinazolin-2-yl)amino)pyrrolidine-1-carbonyl)phenyl)acrylamide], for which the IC50 against CDK7/CycH/MAT1 was 1 to 10 µM; on CDK2/CycA2, 1 to 10 µM; against CDK12 wt/CycK it was 0.1 to 1 µM.

Take `C=CC(=O)Nc1ccc(C(=O)N2CC[C@@H](Nc3ncc4ccncc4n3)C2)cc1` [Example 31, (R)-N-(4-(3-(pyrido[3,4-d]pyrimidin-2-ylamino)pyrrolidine-1-carbonyl)phenyl)acrylamide]: the IC50 against CDK7/CycH/MAT1 is 1 to 10 µM; on CDK2/CycA2, 0.1 to 1 µM; against CDK12 wt/CycK it was no more than 0.1 µM.

For `C=CC(=O)Nc1ccc(C(=O)N2CC[C@@H](Nc3ncc4ccc(C)cc4n3)C2)cc1` [Example 32, (R)-N-(4-(3-((7-methylquinazolin-2-yl)amino)pyrrolidine-1-carbonyl)phenyl)acrylamide], the IC50 on CDK7/CycH/MAT1 is 1 to 10 µM; at CDK2/CycA2, 0.1 to 1 µM; against CDK12 wt/CycK, no more than 0.1 µM.

For the compound `C=CC(=O)Nc1ccc(C(=O)N2CC[C@@H](Nc3ncc4ccc(F)cc4n3)C2)cc1` [Example 35, (R)—N-(4-(3-((7-fluoroquinazolin-2-yl)amino)pyrrolidine-1-carbonyl)phenyl)acrylamide], the IC50 against CDK7/CycH/MAT1 was 1 to 10 µM; against CDK2/CycA2, 1 to 10 µM; against CDK12 wt/CycK, no more than 0.1 µM.

For `C=CC(=O)Nc1ccc(C(=O)N2CC[C@@H](Nc3ncc4ccc(Cl)cc4n3)C2)cc1` [Example 36, (R)—N-(4-(3-((7-chloroquinazolin-2-yl)amino)pyrrolidine-1-carbonyl)phenyl)acrylamide], the IC50 against CDK7/CycH/MAT1 fell in the range of 1 to 10 µM; against CDK2/CycA2, 0.1 to 1 µM; on CDK12 wt/CycK it was 0.1 to 1 µM.

`C=CC(=O)Nc1ccc(C(=O)N2CC[C@@H](Nc3ncc4ccc(C(=O)O)cc4n3)C2)cc1` [Example 38, (R)-2-((1-(4-acrylamidobenzoyl)pyrrolidin-3-yl)amino)quinazoline-7-carboxylic Acid]: the IC50 is 0.1 to 1 µM on CDK7/CycH/MAT1, no more than 0.1 µM against CDK2/CycA2 and no more than 0.1 µM on CDK12 wt/CycK.

For `C=CC(=O)Nc1ccc(C(=O)N2CC[C@@H](Nc3ncc4ccc(C(N)=O)cc4n3)C2)cc1` [Example 39, (R)-2-((1-(4-acrylamidobenzoyl)pyrrolidin-3-yl)amino)quinazoline-7-carboxamide], the IC50 against CDK7/CycH/MAT1 was 0.1 to 1 µM; at CDK2/CycA2, no more than 0.1 µM; at CDK12 wt/CycK, no more than 0.1 µM.

As to `C=CC(=O)Nc1ccc(C(=O)N2CC[C@@H](Nc3ncc4ccc(C(=O)NC)cc4n3)C2)cc1` [Example 40, (R)-2-((1-(4-acrylamidobenzoyl)pyrrolidin-3-yl)amino)-N-methylquinazoline-7-carboxamide], the IC50 on CDK7/CycH/MAT1 was 0.1 to 1 µM; against CDK2/CycA2, no more than 0.1 µM; against CDK12 wt/CycK, no more than 0.1 µM.

As for `C=CC(=O)Nc1ccc(C(=O)N2CC[C@@H](Nc3ncc4ccc(C(=O)N(C)C)cc4n3)C2)cc1` [Example 41, (R)-2-((1-(4-acrylamidobenzoyl)pyrrolidin-3-yl)amino)-N,N-dimethylquinazoline-7-carboxamide], the results for the IC50 on CDK7/CycH/MAT1, against CDK2/CycA2 and against CDK12 wt/CycK were 1 to 10 µM, 0.1 to 1 µM and no more than 0.1 µM, respectively.

As to `C=CC(=O)Nc1ccc(C(=O)N2CC[C@@H](Nc3ncc4ccc(=O)[nH]c4n3)C2)cc1` [Example 42, (R)—N-(4-(3-((7-oxo-7,8-dihydropyrido[2,3-d]pyrimidin-2-yl)amino)pyrrolidine-1-carbonyl)phenyl)acrylamide], the IC50 was 1 to 10 µM at CDK7/CycH/MAT1, 0.1 to 1 µM at CDK2/CycA2 and no more than 0.1 µM at CDK12 wt/CycK.

In the case of `CCC(=O)Nc1ccc(C(=O)N2CC[C@@H](Nc3cc4ccccc4cn3)C2)cc1` [Example 45, (R)—N-(4-(3-(isoquinolin-3-ylamino)pyrrolidine-1-carbonyl)phenyl)propionamide], the results for the IC50 at CDK7/CycH/MAT1, against CDK2/CycA2 and against CDK12 wt/CycK were 1 to 10 µM, 1 to 10 µM and 0.1 to 1 µM, respectively.

On to `CCC(=O)Nc1ccc(C(=O)N2CC[C@@H](Nc3ncc4cc(F)ccc4n3)C2)cc1` [Example 46, (R)—N-(4-(3-((6-fluoroquinazolin-2-yl)amino)pyrrolidine-1-carbonyl)phenyl)propionamide], for which the IC50 at CDK7/CycH/MAT1 fell in the range of 1 to 10 µM; against CDK2/CycA2, 1 to 10 µM; on CDK12 wt/CycK, 0.1 to 1 µM.

Source of the values: patent US11447493B2 (Kinnate Biopharma Inc., priority 2018, dated 2022).
